Several values for one entry are separate records, joined by “and”; a condition that tells them apart may be missing. Equal entries are not always repeated.
Tests used:
[1] = tested on: rheumatoid arthritis model, DBA-1J Mice [류마티스 관절염 모델]; test: Paw edema in rheumatoid arthritis animal model, dose regimen study, Experiment 6; format: in vivo, mouse; details: Day 14, MTX 2 mg/kg/2day PO, HCQ 80 mg/kg/day QD PO, PG 25 mg/kg/day QD PO, TFC 10 mg/kg/day BID PO (G3-G6)
[2] = tested on: rheumatoid arthritis model, DBA-1J Mice [류마티스 관절염 모델]; test: Arthritis score in rheumatoid arthritis animal model, dose regimen study, Experiment 6; format: in vivo, mouse; details: HCQ 80 mg/kg/day QD PO, PG 25 mg/kg/day QD PO; for Arthritis score: MTX 2 mg/kg/2day PO, TFC 10 mg/kg/day BID PO (G3-G6); for Arthritis score (in words): TFC 10 mg/kg/day BID PO
TNF-α [3] = test: TNF-α expression inhibition in Raw264.7, comparison with hydroxychloroquine and proguanil, Experiment 2-3; format: cell-based
TNF-α [4] = test: Plasma TNF-α (ELISA), Experiment 6-5; format: in vivo, mouse; details: for Plasma TNF-α: Day 14, MTX 2 mg/kg/2day PO, HCQ 80 mg/kg/day QD PO, PG 25 mg/kg/day QD PO, TFC 10 mg/kg/day BID PO (G3-G6); for Plasma TNF-α (in words): HCQ, PG, TFC groups
[5] = tested on: rheumatoid arthritis model, DBA-1J Mice [류마티스 관절염 모델]; test: Histopathological examination in rheumatoid arthritis animal model, dose regimen study, Experiment 6; format: in vivo, mouse; details: Day 14; MTX 2 mg/kg/2day PO, HCQ 80 mg/kg/day QD PO, PG 25 mg/kg/day QD PO, TFC 10 mg/kg/day BID PO (G3-G6)
TNF-α [6] = test: TNF-α expression inhibition in Raw264.7, comparison with DMARDs, Experiment 2-1; format: cell-based; details: 6 h pretreatment, LPS 10 ng/mL, MTX 344 nM, HCQ 610 nM, PYR 50 ng/mL, CsA 391 ng/mL, AZA 25 ng/mL, SFZ 750 ng/mL
[7] = tested on: rheumatoid arthritis model, DBA-1J Mice [류마티스 관절염 모델]; test: Histopathological examination in rheumatoid arthritis animal model, Experiment 5; format: in vivo, mouse; details: Day 14; G3: MTX 2 mg/kg/2day PO
[8] = Hematological examination, Experiment 6-4; format: in vivo, mouse
[9] = tested on: rheumatoid arthritis model, DBA-1J Mice [류마티스 관절염 모델]; test: Paw edema in rheumatoid arthritis animal model, Experiment 5; format: in vivo, mouse; details: G3: MTX 2 mg/kg/2day PO
[10] = tested on: rheumatoid arthritis model, DBA-1J Mice [류마티스 관절염 모델]; test: Arthritis score in rheumatoid arthritis animal model, Experiment 5; format: in vivo, mouse; details: G3: MTX 2 mg/kg/2day PO
TNF-α [11] = test: TNF-α expression inhibition in Raw264.7, comparison with tofacitinib, Experiment 2-2; format: cell-based; details: 6 h pretreatment, LPS 10 ng/mL 16 h
[12] = Day 14, G3: MTX 2 mpk qd PO, G12: Py 15 mpk qd PO

[H]/N=C(\N/C(=N/[H])Nc1ccc(Cl)cc1)NC(C)C [프로구아닐]
Paw edema, HL, mean [1]: 0.15 mL
Paw edema, HR, mean [1]: 0.16 mL
Paw edema, HL, individual animal ([1]; listed as PG): 0.13 mL and 0.14 mL and 0.16 mL and 0.15 mL and 0.17 mL and 0.12 mL
Paw edema, HR, individual animal ([1]; listed as PG): 0.16 mL and 0.19 mL and 0.14 mL and 0.13 mL
Arthritis score ([2]; Day 0): 2.5±1.0 total score
Arthritis score ([2]; Day 2): 4.5±1.0 total score
Arthritis score ([2]; Day 5): 6.7±1.2 total score
Arthritis score ([2]; Day 7): 8.3±1.5 total score
Arthritis score ([2]; Day 9): 9.5±2.2 total score
Arthritis score ([2]; Day 12): 10.2±1.6 total score
Arthritis score ([2]; Day 14): 11.2±1.2 total score
Arthritis score (in words) [2]: 관절염 지수가 개선되지 않았다
TNF-α expression (TNF-α [3]; PY 0.2 uM, HCQ 0.61 uM, PG 5 uM, LPS 10 ng/mL, 24 h co-treatment): 988.1
TNF-α expression inhibition (TNF-α [3]; drug treatment 2 h or 24 h, pyrimethamine 0.2 μM, proguanil 5 μM): TNF-α의 발현량을 억제하지 못했고
Plasma TNF-α (TNF-α [4]): 904.4 pg/mL
Plasma TNF-α (in words) (TNF-α [4]): 혈장 TNF-α가 감소하지 않은
Bone destruction [5]: 2.7±0.8
Cartilage damage [5]: 2.3±0.8
Histopathological examination, total [5]: 7.8±1.9
Synovium proliferation [5]: 2.8±0.4

CN(Cc1cnc2nc(N)nc(N)c2n1)c1ccc(C(=O)N[C@@H](CCC(=O)O)C(=O)O)cc1 [메토트렉세이트, Methotrexate]
TNF-α expression (TNF-α [6]; 2hr): 312.8 pg/mL
TNF-α expression (TNF-α [6]; 24hr): 3464.6 pg/mL
Bone destruction [7]: 1.3±1.6
Cartilage damage [7]: 1.0±1.4
Histopathological examination, total [7]: 3.6±4.5
Synovium proliferation [7]: 1.3±1.6
Paw edema, HL, mean [1]: 0.16 mL
Paw edema, HR, mean [1]: 0.16 mL
Paw edema, HL, individual animal ([1]; listed as MTX): 0.19 mL and 0.16 mL and 0.15 mL and 0.17 mL and 0.18 mL and 0.11 mL
Paw edema, HR, individual animal ([1]; listed as MTX): 0.17 mL and 0.14 mL and 0.19 mL and 0.20 mL and 0.13 mL and 0.11 mL
%BASO [8, 12]: 0.6±0.3%
%EOS [8, 12]: 1.8±1.7%
%LUC [8, 12]: 2.8±1.2%
%LYM [8, 12]: 40.8±9.9%
%MONO [8, 12]: 4.2±1.5%
%NEUT [8, 12]: 49.8±11.7%
%RETIC [8, 12]: 0.63±1.16%
HCT [8, 12]: 38.2±6.0%
HDW [8, 12]: 2.15 ± 0.13 g/dL
HGB [8, 12]: 10.9 ± 1.7 g/dL
MCH [8, 12]: 12.8 ± 0.8 pg
MCV [8, 12]: 44.8 ± 2.9 fL
MPV [8, 12]: 7 ± 0.8 fL
PLT [8, 12]: 440±386 10^3 cell/μL
RDW [8, 12]: 23.4±3.7%
WBC [8, 12]: 4.55±0.52 10^3 cell/μL
Hematotoxicity (in words) ([8]; G3 (MTX)): 적혈구와 혈소판 수치가 감소하는 독성이 나타났다
Arthritis score ([2]; Day 0): 2.5±1.0 total score
Arthritis score ([2]; Day 2): 3.7±1.6 total score
Arthritis score ([2]; Day 5): 5.0±2.4 total score
Arthritis score ([2]; Day 7): 6.0±2.9 total score
Arthritis score ([2]; Day 9): 6.3±2.9 total score
Arthritis score ([2]; Day 12): 7.2±2.7 total score
Arthritis score ([2]; Day 14): 7.8±3.4 total score
Paw edema, LEFT ([9]; Day 0): 0.10 ± 0.01 mL
Paw edema, RIGHT ([9]; Day 0): 0.10 ± 0.01 mL
Paw edema, LEFT ([9]; Day 14): 0.13 ± 0.04 mL
Paw edema, RIGHT ([9]; Day 14): 0.16 ± 0.05 mL
Plasma TNF-α (TNF-α [4]): 769.1 pg/mL
Bone destruction [5]: 1.8±1.0
Cartilage damage [5]: 1.0±0.6
Histopathological examination, total [5]: 5.7±1.2
Synovium proliferation [5]: 2.8±0.4
Arthritis score ([10]; Day 0): 2.3±1.6 Total score
Arthritis score ([10]; Day 2): 2.9±1.8 Total score
Arthritis score ([10]; Day 4): 4.6±2.9 Total score
Arthritis score ([10]; Day 7): 5.7±2.5 Total score
Arthritis score ([10]; Day 9): 6.0±2.4 Total score
Arthritis score ([10]; Day 11): 6.6±2.4 Total score
Arthritis score ([10]; Day 14): 6.9±2.5 Total score

C[C@@H]1CCN(C(=O)CC#N)C[C@@H]1N(C)c1ncnc2[nH]ccc12 [토파시티닙]
Paw edema, HL, mean [1]: 0.15 mL
Paw edema, HR, mean [1]: 0.16 mL
Paw edema, HL, individual animal ([1]; listed as TFC): 0.13 mL and 0.12 mL and 0.18 mL and 0.14 mL and 0.17 mL
Paw edema, HR, individual animal ([1]; listed as TFC): 0.19 mL and 0.18 mL and 0.13 mL and 0.14 mL and 0.12 mL
Arthritis score ([2]; Day 0): 2.5±1.0 total score
Arthritis score ([2]; Day 2): 4.5±1.4 total score
Arthritis score ([2]; Day 5): 6.5±2.5 total score
Arthritis score ([2]; Day 7): 8.7±2.3 total score
Arthritis score ([2]; Day 9): 9.0±2.5 total score
Arthritis score ([2]; Day 12): 10.3±2.6 total score
Arthritis score ([2]; Day 14): 11.3±3.3 total score
Arthritis score (in words) [2]: 관절염 지수가 개선되지 않았다
Plasma TNF-α (TNF-α [4]): 885.8 pg/mL
Plasma TNF-α (in words) (TNF-α [4]): 혈장 TNF-α가 감소하지 않은
TNF-α expression (TNF-α [11]; TFN 100 nM): 535.7 pg/mL
TNF-α expression (TNF-α [11]; TFN 200 nM): 538.5 pg/mL
Bone destruction [5]: 2.5±0.5
Cartilage damage [5]: 1.8±0.4
Histopathological examination, total [5]: 7.3±0.8
Synovium proliferation [5]: 3.0±0.0
